The results in this text go back to US20060009423A1, “Phosphonate-phosphate and diphosphonate apolipoprotein e modulators” (priority 2002, published 2006).

For assay [1], the system named is THP-1 cells. Kind of assay: In vitro apoE secretion by THP-1 cells (ELISA). The conditions noted are these: 72 hours incubation, ELISA of culture medium. The format is cell-based, human. The source says:
The in vitro assay comprises determining the effect of a compound of formula (I) in modulating the secretion of apoE by an apoE secreting cell line (e.g., a monocyte-macrophage cell line such as the THP-1 cell line, a liver derived cell line such as the HepG2 cell line, an intestinal derived cell line such as the CaCo2 cell line, or a brain derived cell line such as the astrocytoma CCF-STTG1 cell line). The experimental details for use of the THP-1 cell line in the in vitro assay are provided below.
The THP-1 cell line was derived from the peripheral blood of a child with acute monocytic leukaemia and were obtained from the European Collection of Animal Cell Cultures (ECACC, #88081201). […] The cells are grown as non-adherent cells in RPMI 1640 culture medium, 2 mM glutamine, 20 μM 2-mercaptoethanol. Fresh medium is added to maintain cell density between 2 and 9×10^5 cells/ml. […]
Ninety-six well-microtiter plates are coated by incubating with a 5% gelatin solution from porcine skin, bloom 60 in 50 mM carbonate-bicarbonate buffer, pH9.6 at the concentration of 200 μl/well, for 2 hours at 37° C. The coating solution is carefully removed and the sample to be analyzed was added (100 μl/well) at the appropriate dilution. […] The absorbance at 492 nm versus 620 nm is read on a microplate photometer and the results are then converted in human apoE ng equivalent. […]
In general terms: In an ELISA, binding on a coated surface is turned into a signal by an enzyme label.

The test system of assay [2] is apoE plasma levels. Put plainly: ApoE plasma levels in vivo in the rat (ATRA).
Assay [3] relates to plasma apoE. Put plainly: Plasma apoE levels in vivo in rats fed a normal diet. Further details: species or system rat. The conditions noted are these: orally, 400 mg/kg per day for 5 days. From the text:
A convenient model for the screening of apoE modulating compounds is the model described in Leininger-Muller & Siest, 1996. This model involves the use of rats fed a normal diet. Selected compounds of formula (I) ae submitted to the in vivo rat test. Following are the results for compound 1, diethyl α-(dimethoxyphosphinyl)-p-chlorobenzyl phosphate: [drawing 3]
Two groups of 4 or 5 OFA rats (Iffa-Credo, France) weighing between 140 g and 160 g were acclimatized for at least one week, allowed UAR food and tap water ad libitum, under a 12/12 hours light/obscurity cycle (7.00 am-7.00 pm) then treated daily between 3.00 pm and 4.00 pm with test compounds ([…]) p.o. in a vehicle volume of 1 ml for 5 days. Compound 1 was given as a suspension in 20% Tween-80 supplemented with 0.5% carboxymethylcellulose. Control group received 1 ml vehicle alone. After a treatment period of 5 days, rats were weighed, sacrificed by decapitation under pentobarbital anesthesia after an overnight fast. Blood was collected on EDTA and plasma was used for analysis. When given orally to rats at the dose of 400 mg/kg per day for 5 days, compound 1 increased plasma apoE by 61±8%.

In assay [4] the test system is apoE in sciatic nerve. Put plainly: Sciatic nerve tissue apoE levels in vivo, rat model of sciatic injury (ELISA). The following applies: rats, orally, 400 mg/kg/day for 37 days; % change from control. The procedure: A rat model of sciatic injury was established according to Goodrum & Boudin, 1996. Rats with or without nerve injury were treated orally with compound 1 (400 mg/kg for 5 weeks). The amount of apoE was determined in homogenates of the sciatic nerves by ELISA using a goat anti-apolipoprotein E antibody. A dilution to 1/200 of rat plasma was coated on microtiter plates; apoE was recognized by the polyclonal antibody; the conjugate (anti-goat IgG peroxidase) antibody was then added for substrate biochemical recognition. Apolipoprotein E was expressed as % change from mean control value. Cholesterol was measured with a commercially available enzymatic kit (Bioreac, Switzerland). Results were expressed as % change from control group.

Take `CC1=C(/C=C/C(C)=C/C=C/C(C)=C/C(=O)O)C(C)(C)CCC1` [ATRA, all-trans retinoic acid]: the “production of apoE by THP-1 cells” value in assay [1] is “decreased the production of apoE”. Also, in assay [2], the “apoE plasma levels observed in vivo in the rat” value was “decreased apoE plasma levels”.
Turning to `CCOP(=O)(OCC)OC(c1ccc(Cl)cc1)P(=O)(OC)OC` (stereo not drawn) [compound 1, diethyl α-(dimethoxyphosphinyl)-p-chlorobenzyl phosphate], the “increase of plasma apoE” value in assay [3] is reported as 61±8%. Further, in assay [4], the “increase of apoE in the contralateral nerve” value was 58% and the “increase of apoE in the crushed sciatic nerve” value is recorded as 154%.
